Results on 20 compounds are retold here after US20240398828A1, “HETERO-ATOM CONTAINING COMPOUNDS AND USES THEREOF” (Kumquat Biosciences Inc., priority 2021, published 2024).

As a reminder, the pIC50 is the IC50 on a negative log10 scale, so that one unit is a factor of ten.

pIC50: −log10 of the molar value.

One assay concerns the target T1, PTPN1 (i.e., PTP1B) (Homo sapiens, UniProt P18031).
T1 sequence (P18031 1-435): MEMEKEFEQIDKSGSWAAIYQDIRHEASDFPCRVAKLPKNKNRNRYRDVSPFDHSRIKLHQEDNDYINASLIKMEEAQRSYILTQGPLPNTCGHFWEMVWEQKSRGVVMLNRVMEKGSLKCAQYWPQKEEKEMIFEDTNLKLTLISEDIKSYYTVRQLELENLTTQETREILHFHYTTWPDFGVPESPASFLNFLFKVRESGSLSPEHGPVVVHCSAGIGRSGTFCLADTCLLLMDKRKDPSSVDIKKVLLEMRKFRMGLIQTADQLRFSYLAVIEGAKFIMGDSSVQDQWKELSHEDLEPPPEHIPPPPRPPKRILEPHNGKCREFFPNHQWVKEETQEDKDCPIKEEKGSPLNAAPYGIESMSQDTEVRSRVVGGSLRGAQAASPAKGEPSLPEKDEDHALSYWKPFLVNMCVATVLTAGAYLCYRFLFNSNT
In words: Phosphatase activity assay (DiFMUP substrate), PTP1B. Format: biochemical. As to conditions: compounds binned ≤1 uM or >1 uM. On the procedure:
(§1) The selectivity and potency of a small molecule PTPN2 inhibitor as provided herein against one or more protein tyrosine phosphatase (PTP) enzymes, and specifically against PTPN2, is assessed in various ways. The one or more PTP enzymes comprise Mycobacterium protein tyrosine phosphatase A (mPTPA), Mycobacterium protein tyrosine phosphatase B (mPTPB), PTPN1 (i.e., PTP1B), PTPN2 (i.e., TC-PTP), PTPN22 (i.e., LYP), SHP-1, SHP-2, FAP-1, Meg2, HePTP, Laforin, VHX, VHR, LMWPTP, Cdc14A, LAR, CD45, PTPRG, a fragment thereof, a variant thereof, and a combination thereof. Selectivity and potency of a small molecule PTPN2 inhibitor is evaluated using a PTP activity inhibition assay. The assay is performed using a buffer comprising 50 mM HEPES buffer pH 7.5, 150 mM NaCl, 0.5 mM EDTA, 1 mM DTT, 0.001% Tween-20.
(§2) The assay is performed using a phosphated substrate, e.g., 10 mM 6,8-Difluoro-4-Methylumbelliferyl Phosphate (DIFMUP) that is stored at −20° C. Alternatively or in addition to, the assay is performed using other phosphated substrate (e.g., fluorescein diphosphate). Each PTP enzyme is diluted in the assay buffer
(§3) The assay can be carried out at room temperature in multiplate format, e.g., using 384 well plates. A small molecule PTPN2 inhibitor dissolved in DMSO at one of 10 concentrations from a serial dilution or DMSO alone for control is added to each well. A mixture of the assay buffer comprising PTP enzyme (e.g., 0.025 ng/ul PTPN2) is added to each well and mixed for approximately 2 minutes. The reaction is initiated by adding DiFMUP diluted in the assay buffer to a final concentration of approximately 45 μM DiFMUP in PTPN2 assay. For each PTP enzyme, DiFMUP is added at the Km (Michaelis constant) of the enzyme that had been independently determined. The phosphatase activity of the PTP enzyme is assessed by monitoring appearance of a fluorescent product (6,8-difluoro-7-hydroxyl-4-coumarin (DiFMU) from DiFMUP) continuously for about 15 to 30 minutes, using the INFINITE M1000Pro plate reader (Tecan) with excitation at 360 nm and emission at 450 nm (cutoff filter at 435 nm) for DiFMU. Each assay is performed at least in duplicate. The rate (e.g., the initial rate) of DiFMU formation is plotted against the concentration of the small molecule PTPN2 inhibitor, and the data is fitted (e.g., using a 4-parameter equation) to determine the inflection point of the fit as the IC50 of the small molecule PTPN2 inhibitor for a specific enzyme. Utilizing this assay, the ability of the compounds in Table 2 to inhibit PTPN2 and PTP1B has been assessed. Table 3 summarizes the IC50 values.

The target in a further assay is T2, PTPN2 (i.e., TC-PTP) (Homo sapiens, UniProt P17706).
T2 sequence (P17706 1-415): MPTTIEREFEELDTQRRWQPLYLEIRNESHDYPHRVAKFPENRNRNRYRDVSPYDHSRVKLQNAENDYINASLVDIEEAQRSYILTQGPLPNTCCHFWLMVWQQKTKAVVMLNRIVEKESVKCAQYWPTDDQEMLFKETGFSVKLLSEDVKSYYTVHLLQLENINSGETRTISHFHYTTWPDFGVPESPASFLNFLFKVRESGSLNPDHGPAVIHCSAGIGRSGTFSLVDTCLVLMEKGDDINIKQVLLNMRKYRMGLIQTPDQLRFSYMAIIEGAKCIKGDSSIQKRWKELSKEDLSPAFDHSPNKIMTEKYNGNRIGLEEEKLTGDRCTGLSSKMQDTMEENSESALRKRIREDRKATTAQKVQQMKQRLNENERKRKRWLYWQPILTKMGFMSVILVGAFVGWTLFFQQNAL
Nature of the assay: Phosphatase activity assay (DiFMUP substrate), PTPN2. Format: biochemical. As to conditions: compounds binned ≤1 uM or >1 uM. On the procedure:
as §1, §2, §3

As for `NCC1CCCN1c1cc(-c2ccc(O)c(N3CC(=O)NS3(=O)=O)c2F)[nH]n1` (stereo not drawn) [Compound 308, 5-(3-(3-(2-(aminomethyl)pyrrolidin-1-yl)-1H-pyrazol-5-yl)-2-fluoro-6-hydroxyphenyl)-1,2,5-thiadiazolidin-3-one 1,1-dioxide], the pIC50 at PTPN1 (i.e., PTP1B) was at least 6.00; at PTPN2 (i.e., TC-PTP), at least 6.00.

Take `O=C1CN(c2c(O)ccc(-c3cnn(CC(F)F)c3)c2F)S(=O)(=O)N1` [Compound 525, 5-(3-(1-(2,2-difluoroethyl)-1H-pyrazol-4-yl)-2-fluoro-6-hydroxyphenyl)-1,2,5-thiadiazolidin-3-one 1,1-dioxide]: the pIC50 is at least 6.00 on PTPN1 (i.e., PTP1B) and at least 6.00 on PTPN2 (i.e., TC-PTP).

With `O=C1CN(c2c(O)ccc(-c3cc(C4CC4(F)F)nn3C(F)F)c2F)S(=O)(=O)N1` (stereo not drawn) [Compound 538, 5-(3-(3-(2,2-difluorocyclopropyl)-1-(difluoromethyl)-1H-pyrazol-5-yl)-2-fluoro-6-hydroxyphenyl)-1,2,5-thiadiazolidin-3-one 1,1-dioxide], the pIC50 on PTPN1 (i.e., PTP1B) is at least 6.00; on PTPN2 (i.e., TC-PTP) it was at least 6.00.

As to `N#Cc1ccc(Cn2cc(-c3ccc(O)c(N4CC(=O)NS4(=O)=O)c3F)cn2)cc1` [Compound 224, 4-((4-(3-(1,1-dioxido-4-oxo-1,2,5-thiadiazolidin-2-yl)-2-fluoro-4-hydroxyphenyl)-1H-pyrazol-1-yl)methyl)benzonitrile], the pIC50 at PTPN1 (i.e., PTP1B) is at least 6.00; on PTPN2 (i.e., TC-PTP) it was at least 6.00.

Turning to `O=C1CN(c2c(O)ccc(-c3cnn(C4CCC(C(F)(F)F)CC4)c3)c2F)S(=O)(=O)N1` (stereo not drawn) [Compound 341, 5-(2-fluoro-6-hydroxy-3-(1-(4-(trifluoromethyl)cyclohexyl)-1H-pyrazol-4-yl)phenyl)-1,2,5-thiadiazolidin-3-one 1,1-dioxide], the pIC50 on PTPN1 (i.e., PTP1B) is at least 6.00; at PTPN2 (i.e., TC-PTP), at least 6.00.

In the case of `CC(C)(C)n1cc(-c2ccc(O)c(N3CC(=O)NS3(=O)=O)c2F)cn1` [Compound 293, 5-(3-(1-(tert-butyl)-1H-pyrazol-4-yl)-2-fluoro-6-hydroxyphenyl)-1,2,5-thiadiazolidin-3-one 1,1-dioxide], the pIC50 at PTPN1 (i.e., PTP1B) was at least 6.00; on PTPN2 (i.e., TC-PTP) it was at least 6.00.

In the case of `NC1CCN(c2cc(-c3ccc(O)c(N4CC(=O)NS4(=O)=O)c3F)[nH]n2)C1` (stereo not drawn) [Compound 322, 5-(3-(3-(3-aminopyrrolidin-1-yl)-1H-pyrazol-5-yl)-2-fluoro-6-hydroxyphenyl)-1,2,5-thiadiazolidin-3-one 1,1-dioxide], the pIC50 on PTPN1 (i.e., PTP1B) was at least 6.00; at PTPN2 (i.e., TC-PTP), at least 6.00.

`COc1ccc(-c2cnc(O)nc2)c(F)c1N1CC(=O)NS1(=O)=O` [Compound 105, 5-(2-fluoro-3-(2-hydroxypyrimidin-5-yl)-6-methoxyphenyl)-1,2,5-thiadiazolidin-3-one 1,1-dioxide]: the pIC50 is below 6.00 on PTPN1 (i.e., PTP1B) and below 6.00 on PTPN2 (i.e., TC-PTP).

For `Cc1cc(-c2ccc(O)c(N3CC(=O)NS3(=O)=O)c2F)sn1` [Compound 283, 5-(2-fluoro-6-hydroxy-3-(3-methylisothiazol-5-yl)phenyl)-1,2,5-thiadiazolidin-3-one 1,1-dioxide], the pIC50 on PTPN1 (i.e., PTP1B) was at least 6.00; at PTPN2 (i.e., TC-PTP) it was at least 6.00.

Turning to `O=C1CN(c2c(O)ccc(-c3cc(C(=O)N4CCC4)n[nH]3)c2F)S(=O)(=O)N1` [Compound 230, 5-(3-(3-(azetidine-1-carbonyl)-1H-pyrazol-5-yl)-2-fluoro-6-hydroxyphenyl)-1,2,5-thiadiazolidin-3-one 1,1-dioxide], the pIC50 is at least 6.00 at PTPN1 (i.e., PTP1B) and at least 6.00 on PTPN2 (i.e., TC-PTP).

Regarding `COc1ccc(Cn2cc(-c3ccc(O)c(N4CC(=O)NS4(=O)=O)c3F)cn2)cc1` [Compound 172, 5-(2-fluoro-6-hydroxy-3-(1-(4-methoxybenzyl)-1H-pyrazol-4-yl)phenyl)-1,2,5-thiadiazolidin-3-one 1,1-dioxide], the pIC50 is at least 6.00 on PTPN1 (i.e., PTP1B) and at least 6.00 on PTPN2 (i.e., TC-PTP).

Consider `CCCC1C=C(c2ccc(O)c(N3CC(=O)NS3(=O)=O)c2F)CN1` (stereo not drawn) [Compound 515, 5-(2-fluoro-6-hydroxy-3-(5-propyl-2,5-dihydro-1H-pyrrol-3-yl)phenyl)-1,2,5-thiadiazolidin-3-one 1,1-dioxide], for which the negative-log IC50 (pIC50) is at least 6.00 at PTPN1 (i.e., PTP1B) and at least 6.00 on PTPN2 (i.e., TC-PTP).

For `O=C1CN(c2c(O)ccc(-c3cc(C(=O)NC4CC4)n[nH]3)c2F)S(=O)(=O)N1` [Compound 460, N-cyclopropyl-5-(3-(1,1-dioxido-4-oxo-1,2,5-thiadiazolidin-2-yl)-2-fluoro-4-hydroxyphenyl)-1H-pyrazole-3-carboxamide], the pIC50 is at least 6.00 at PTPN1 (i.e., PTP1B) and below 6.00 at PTPN2 (i.e., TC-PTP).

Take `N#CNC(=N)N1CC=C(c2ccc(O)c(N3CC(=O)NS3(=O)=O)c2F)C1` [Compound 476, N-cyano-3-(3-(1,1-dioxido-4-oxo-1,2,5-thiadiazolidin-2-yl)-2-fluoro-4-hydroxyphenyl)-2,5-dihydro-1H-pyrrole-1-carboximidamide]: the pIC50 is at least 6.00 on PTPN1 (i.e., PTP1B) and at least 6.00 at PTPN2 (i.e., TC-PTP).

As to `Cn1cc(-c2ccc(O)c(N3CC(=O)NS3(=O)=O)c2F)c(F)n1` [Compound 110, 5-(2-fluoro-3-(3-fluoro-1-methyl-1H-pyrazol-4-yl)-6-hydroxyphenyl)-1,2,5-thiadiazolidin-3-one 1,1-dioxide], the pIC50 at PTPN1 (i.e., PTP1B) is at least 6.00; at PTPN2 (i.e., TC-PTP) it was at least 6.00.

`N=C(N)N1CCC=C(c2ccc(O)c(N3CC(=O)NS3(=O)=O)c2F)C1` [Compound 499, 5-(3-(1,1-dioxido-4-oxo-1,2,5-thiadiazolidin-2-yl)-2-fluoro-4-hydroxyphenyl)-3,6-dihydropyridine-1(2H)-carboximidamide]: the pIC50 is at least 6.00 on PTPN1 (i.e., PTP1B) and at least 6.00 at PTPN2 (i.e., TC-PTP).

Regarding `O=C1CN(c2c(O)ccc(-c3cc(N4CCC5(CCCN5)C4)n[nH]3)c2F)S(=O)(=O)N1` (stereo not drawn) [Compound 321, 5-(3-(3-(1,7-diazaspiro[4.4]nonan-7-yl)-1H-pyrazol-5-yl)-2-fluoro-6-hydroxyphenyl)-1,2,5-thiadiazolidin-3-one 1,1-dioxide], the negative logarithm of the IC50 (pIC50) at PTPN1 (i.e., PTP1B) was at least 6.00; on PTPN2 (i.e., TC-PTP), at least 6.00.

In the case of `COCCCc1cc(-c2ccc(O)c(N3CC(=O)NS3(=O)=O)c2F)[nH]n1` [Compound 243, 5-(2-fluoro-6-hydroxy-3-(3-(3-methoxypropyl)-1H-pyrazol-5-yl)phenyl)-1,2,5-thiadiazolidin-3-one 1,1-dioxide], the negative-log IC50 (pIC50) at PTPN1 (i.e., PTP1B) was at least 6.00; on PTPN2 (i.e., TC-PTP), at least 6.00.

With `CC(C)CCn1cc(-c2ccc(O)c(N3CC(=O)NS3(=O)=O)c2Cl)cn1` [Compound 175, 5-(2-chloro-6-hydroxy-3-(1-isopentyl-1H-pyrazol-4-yl)phenyl)-1,2,5-thiadiazolidin-3-one 1,1-dioxide], the negative-log IC50 (pIC50) on PTPN1 (i.e., PTP1B) is at least 6.00; on PTPN2 (i.e., TC-PTP), at least 6.00.

`CC(C1CCCCC1)n1cnc(-c2ccc(O)c(N3CC(=O)NS3(=O)=O)c2F)c1` (stereo not drawn) [Compound 413, 5-(3-(1-(1-cyclohexylethyl)-1H-imidazol-4-yl)-2-fluoro-6-hydroxyphenyl)-1,2,5-thiadiazolidin-3-one 1,1-dioxide]: the pIC50 at PTPN2 (i.e., TC-PTP) was below 6.00.
